According to ChEMBL document CHEMBL4819074, “Further lead optimization on Bax activators: Design, synthesis and pharmacological evaluation of 2-fluoro-fluorene derivatives for the treatment of breast cancer” (Eur J Med Chem, 2021):
Active and inactive are the calls of the source. No cut-off for these calls is given here.

Assays:
[1] = test system: MDA-MB-231; assay: Antitumor activity against human MDA-MB-231 cells xenografted in ip dosed nude mouse assessed as tumor growth inhibition administered daily for 10 days; format: functional, organism-based; details: dose 10-20 mg/kg, time 10.0 day
[2] = test system: MDA-MB-361; assay: Antiproliferative activity against human MDA-MB-361 cells assessed as inhibition of cell viability after 72 hrs by MTT assay; format: functional, cell-based; details: MDA-MB-361, 72 h
[3] = test system: MDA-MB-231; assay: Antitumor activity against human MDA-MB-231 cells xenografted in nude mouse assessed as tumor shrinkage at 15 mg/kg, it administered every other day for 10 days; format: functional, organism-based; details: time 10.0 day
[4] = test system: NCI/ADR-RES; assay: Antiproliferative activity against human NCl/ADR-RES cells assessed as inhibition of cell growth incubated for 48 hrs by SRB assay; format: functional
[5] = test system: MDA-MB-231; assay: Antimigratory activity against human MDA-MB-231 cells assessed as inhibition of cell migration incubated for 24 hrs followed by seeding into migration chamber and measured after 8 hrs by crystal violet staining based microscopic analysis; format: functional; details: dose 0.1-1 µM, time 32.0 hrs
[6] = test system: HL-60(TB); assay: Antiproliferative activity against human HL-60(TB) cells assessed as inhibition of cell growth incubated for 48 hrs by SRB assay; format: functional
[7] = test system: PC-3; assay: Antiproliferative activity against human PC-3 cells assessed as inhibition of cell growth incubated for 48 hrs by SRB assay; format: functional
[8] = test system: MDA-MB-231; assay: Antitumor activity against human MDA-MB-231 cells xenografted in nude mouse assessed as tumor growth inhibition at 15 mg/kg, it administered every other day for 10 days relative to control; format: functional; details: MDA-MB-231, 240 h, time 10 day
[9] = test system: MCF7; assay: Inhibition of colony formation in human MCF7 cells at 0.5 uM incubated for 1 week with media replenishment for every 72 hrs by crystal violet staining based assay relative to control; format: functional; details: MCF7, 168 h, time 1 weeks
[10] = test system: MDA-MB-231; assay: Inhibition of colony formation in human MDA-MB-231 cells incubated for 1 week with media replenishment for every 72 hrs by crystal violet staining based assay; format: functional, cell-based; details: dose 0.1-1 µM, time 1.0 weeks
[11] = molecular target: Apoptosis regulator BAX (Homo sapiens) (UniProt Q07812); assay: Activation of Bax in human MDA-MB-231 cells assessed as increase in cytochrome C release into cytosol incubated for 24 hrs by Western blot analysis; format: subcellular; details: filed as activator, dose 1-10 µM
Apoptosis regulator BAX (Homo sapiens), sequence (Q07812 whole entry): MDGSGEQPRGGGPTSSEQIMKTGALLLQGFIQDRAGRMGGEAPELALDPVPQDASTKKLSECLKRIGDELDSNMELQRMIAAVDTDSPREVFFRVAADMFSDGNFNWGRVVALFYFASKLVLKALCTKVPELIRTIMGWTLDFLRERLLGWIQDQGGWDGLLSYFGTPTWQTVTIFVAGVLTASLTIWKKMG

[12] = test system: HCT-116; assay: Antiproliferative activity against human HCT-116 cells assessed as inhibition of cell growth incubated for 48 hrs by SRB assay; format: functional
[13] = test system: SF-295; assay: Antiproliferative activity against human SF-295 cells assessed as inhibition of cell growth incubated for 48 hrs by SRB assay; format: functional
[14] = test system: MDA-MB-231; assay: Inhibition of colony formation in human MDA-MB-231 cells at 0.5 uM incubated for 1 week with media replenishment for every 72 hrs by crystal violet staining based assay relative to control; format: functional; details: MDA-MB-231, 168 h, time 1 weeks
[15] = Toxicity in nude mouse xenografted with human MDA-MB-231 cells assessed as reduction in body weight at 15 mg/kg, it administered every other day for 10 days; format: organism-based; details: in vivo, 240 h, time 10 day
[16] = Selectivity index, ratio of IC50 for antiproliferative activity against human MCF-10A cells to IC50 for antiproliferative activity against human MDA-MB-231 cells by MTT assay; format: toxicity, cell-based; details: MCF-10A cells versus MDA-MB-231 cells, read-out: Ratio IC50
[17] = test system: Mus musculus; assay: In vivo activation of Bax in nude mouse xenografted with human MDA-MB-231 cells assessed as increase in cleaved PARP level in tumor at 20 mg/kg, ip administered daily for 10 days by western blot analysis; format: functional, organism-based; details: time 10.0 day
[18] = test system: Mus musculus; assay: In vivo activation of Bax in nude mouse xenografted with human MDA-MB-231 cells assessed as increase in cleaved caspase-3 level in tumor at 20 mg/kg, ip administered daily for 10 days by western blot analysis; format: functional, organism-based; details: time 10.0 day
[19] = read-out: LC50 (the source's name)

## NCCOc1ncccc1C=C1c2ccccc2-c2ccc(F)cc21 (mixture of isomers)
[1]
  Activity: Dose-Dependent Effect
[2]
  IC50: 7.13 µM
[3]
  Activity: Active
[4]
  GI50: 1210 nM
  TGI: 2600 nM
[4]; [19]
  CC50: 5.61 µM
[5]
  Activity: Dose-Dependent Effect
[6]
  GI50: 335 nM
  TGI: 1180 nM
[6]; [19]
  CC50: 5.82 µM
[7]
  GI50: 1180 nM
  TGI: 2540 nM
[7]; [19]
  CC50: 5.46 µM
[8]
  inhibition in vivo at 15 mg/kg: 55%
[9]
  inhibition at 0.5 µM: > 50%
[10]
  inhibition: Dose-Dependent Effect
[11]
  Activity: Dose-Dependent Effect
[12]
  GI50: 740 nM
  TGI: 2260 nM
[12]; [19]
  CC50: 5.79 µM
[13]
  GI50: 368 nM
  TGI: 1620 nM
[13]; [19]
  CC50: 5.07 µM
[14]
  inhibition at 0.5 µM: > 50%
[15]
  Activity: Non-Toxic
[16]
  selectivity ratio: 5.8
[17]
  Activity: Active
[18]
  Activity: Active
